Measured values as given in article PMC2664092 (Biochemistry, 2008).

Molecular target: T1, LpxL (Escherichia coli, UniProt P0ACV0)
T1 sequence (P0ACV0 1-306): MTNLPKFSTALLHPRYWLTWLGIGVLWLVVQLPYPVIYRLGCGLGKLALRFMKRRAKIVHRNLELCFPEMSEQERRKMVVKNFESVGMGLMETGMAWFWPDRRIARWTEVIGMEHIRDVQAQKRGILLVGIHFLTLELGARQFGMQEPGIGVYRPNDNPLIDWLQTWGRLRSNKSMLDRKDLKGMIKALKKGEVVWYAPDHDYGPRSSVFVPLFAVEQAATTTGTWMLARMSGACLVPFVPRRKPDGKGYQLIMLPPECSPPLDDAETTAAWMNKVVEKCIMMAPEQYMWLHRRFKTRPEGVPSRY
Test: […] TLC acyltransferase assay, PhosphorImager
Assay type: biochemical
Details: read-out: apparent KM; 90 µM lauroyl-ACP (saturating); 0.1% Triton X-100, 0.1 mg/mL BSA, 5 mM MgCl2, 50 mM NaCl, 50 mM HEPES pH 7.5; 30 °C (standard assay); labelled compound

Km: 15 ± 3 µM
SMILES: CCCCCCCCCCC[C@@H](O)CC(=O)N[C@H]1[C@H](OC[C@H]2O[C@H](OP(=O)(O)O)[C@H](NC(=O)C[C@H](O)CCCCCCCCCCC)[C@@H](OC(=O)C[C@H](O)CCCCCCCCCCC)[C@@H]2O)O[C@H](CO[C@]2(C(=O)O)C[C@@H](O[C@]3(C(=O)O)C[C@@H](O)[C@@H](O)[C@@H]([C@H](O)CO)O3)[C@@H](O)[C@@H]([C@H](O)CO)O2)[C@@H](OP(=O)(O)O)[C@@H]1OC(=O)C[C@H](O)CCCCCCCCCCC [Kdo2-lipid IVA]
